For 25 molecules, IC50 and EC50 results are on record in ChEMBL document CHEMBL1777733, “The discovery and structure-activity relationships of pyrano[3,4-b]indole-based inhibitors of hepatitis C virus NS5B polymerase” (Bioorg Med Chem Lett, 2011).

Assay [1] can be described thus: Inhibition of HCV BK NS5B polymerase after 15 mins. Details: species or system Hepatitis C virus (isolate BK).
Assay [2] can be described thus: Inhibition of HCV BB7 NS5B polymerase after 15 mins. Further details: species or system Hepacivirus hominis.
The test system of assay [3] is Hepatitis C virus. Put plainly: Antiviral activity against HCV genotype 1b infected in human Huh7 cells assessed as reduction of viral RNA level after 3 days by RT-PCR method. The class given is functional, organism-based, Hepacivirus hominis. The settings on record: Huh-7, 72 h.
In assay [4] the test system is Hepatitis C virus. Put plainly: Antiviral activity against HCV genotype 1b infected in human Huh7 cells assessed as decrease in viral NS5A levels after 3 days by ELISA. The class given is functional, organism-based, Hepacivirus hominis. The settings on record: Huh-7, 72 h.

The structures appear in SMILES notation.

For `CC[C@H](C)[C@]1(CC(=O)O)OCCc2c1[nH]c1c(C)c(OCCn3cccn3)cc(C#N)c21`, the IC50 came out at 0.012 µM in assay [1] and 0.003 µM in assay [2]. Further, in the assay with Hepatitis C virus [3], the EC50 was determined as 0.02 µM.

For the molecule `CCC[C@]1(CC(=O)O)OCCc2c1[nH]c1c(C)c(OCCn3cccn3)cc(C#N)c21`, the IC50 in assay [1] and in assay [2] was 0.005 µM in each case.

In the case of `CCC[C@]1(CC(=O)O)OCCc2c1[nH]c1c(C)c(OCc3cc(C)on3)cc(C#N)c21`, the results for the IC50 in assay [1] and in assay [2] were 0.006 µM and 0.008 µM, respectively. The EC50 in the assay on Hepatitis C virus [4] is 0.48 µM.

As for `CCC[C@]1(CC(=O)O)OCCc2c1[nH]c1c(C)c(OCc3cc(C)n(C)n3)cc(C#N)c21`, the results for the IC50 in assay [1] and in assay [2] were 0.03 µM and 0.02 µM, respectively. Further, the concentration giving a half-maximal response (EC50) with Hepatitis C virus [4] amounted to 0.76 µM.

Consider `CCC[C@]1(CC(=O)O)OCCc2c1[nH]c1c(C)c(OC[C@H](C)n3cccn3)cc(C#N)c21`, for which the IC50 in assay [1] and in assay [2] was 0.003 µM throughout. The EC50 in the assay on Hepatitis C virus [4] stood at 0.12 µM.

In the case of `CCC[C@]1(CC(=O)O)OCCc2c1[nH]c1c(C)c(OC[C@@H](C)n3cccn3)cc(C#N)c21`, the IC50 in assay [1] and in assay [2] was 0.007 µM throughout. For the same molecule, in the assay on Hepatitis C virus [4], the EC50 came out at 0.34 µM.

For `CC[C@H](C)[C@]1(CC(=O)O)OCCc2c1[nH]c1c(C)c(OC[C@H](C)n3cccn3)cc(C#N)c21`, the IC50 in assay [1] and in assay [2] was 0.002 µM in each case. The EC50 in the assay on Hepatitis C virus [3] was determined as 0.02 µM.

On to `CCC[C@]1(CC(=O)O)OCCc2c1[nH]c1c(C)ccc(C#N)c21`, for which the IC50 in assay [1] was 0.3 µM; in assay [2], 0.4 µM.

As for `CCCC1(CC(=O)O)OCCc2c1[nH]c1c(C)c(C(=O)NC)cc(C#N)c21` (racemic), the IC50 in assay [1] was determined as 1.3 µM; in assay [2] it was 0.97 µM. For the same molecule, in the assay on Hepatitis C virus [4], the EC50 is above 100 µM.

As for `CCCC1(CC(=O)O)OCCc2c1[nH]c1c(C)c(C(=O)N(C)C)cc(C#N)c21` (racemic), the IC50 in assay [1] was found to be 16 µM; in assay [2], 20 µM. In addition, the concentration for a half-maximal effect (EC50) with Hepatitis C virus [4] was above 100 µM.

Regarding `CCCNC(=O)c1cc(C#N)c2c3c([nH]c2c1C)C(CCC)(CC(=O)O)OCC3` (racemic), the IC50 in assay [1] came to 3 µM; in assay [2], 2 µM. The EC50 with Hepatitis C virus [4] is above 100 µM.

`CCCC1(CC(=O)O)OCCc2c1[nH]c1c(C)c(C(=O)NCc3ccccc3)cc(C#N)c21` (racemic): the IC50 in assay [1] stood at 0.98 µM; in assay [2] it was 0.67 µM. For the same molecule, the EC50 with Hepatitis C virus [4] was above 100 µM.

On to `CCCC1(CC(=O)O)OCCc2c1[nH]c1c(C)c(C(=O)NCc3ccc4c(c3)OCO4)cc(C#N)c21` (racemic), for which the IC50 stood at 0.54 µM in assay [1] and 0.3 µM in assay [2]. Further, in the assay with Hepatitis C virus [4], the EC50 was determined as 56 µM.

Turning to `CCCC1(CC(=O)O)OCCc2c1[nH]c1c(C)c(C(=O)NCCc3ccccn3)cc(C#N)c21` (racemic), the results for the IC50 in assay [1] and in assay [2] were 1.2 µM and 0.64 µM, respectively. For the same molecule, the EC50 in the assay on Hepatitis C virus [4] was above 100 µM.

Regarding `CCCC1(CC(=O)O)OCCc2c1[nH]c1c(C)c(C(=O)NCCc3ncc[nH]3)cc(C#N)c21` (racemic), the values for the half-maximal inhibitory concentration (IC50) in assay [1] and in assay [2] were 0.86 µM and 0.56 µM, respectively. Moreover, the concentration giving a half-maximal response (EC50) in the assay with Hepatitis C virus [4] was above 100 µM.

In the case of `CCCC1(CC(=O)O)OCCc2c1[nH]c1c(C)c(O)cc(C#N)c21` (racemic), the IC50 in assay [1] came out at 0.26 µM; in assay [2], 0.2 µM. In addition, in the assay on Hepatitis C virus [4], the EC50 was 47 µM.

`CCCC1(CC(=O)O)OCCc2c1[nH]c1c(C)c(OC)cc(C#N)c21` (racemic): the IC50 in assay [1] is 0.36 µM; in assay [2] it was 0.13 µM. For the same molecule, the EC50 in the assay on Hepatitis C virus [4] came to 20 µM.

Turning to `CCCC1(CC(=O)O)OCCc2c1[nH]c1c(C)c(OCC)cc(C#N)c21` (racemic), the figures for the IC50 in assay [1] and in assay [2] were 0.11 µM and 0.07 µM, respectively. For the same molecule, the concentration for a half-maximal effect (EC50) in the assay on Hepatitis C virus [4] is 3.5 µM.

Consider `CCCOc1cc(C#N)c2c3c([nH]c2c1C)C(CCC)(CC(=O)O)OCC3` (racemic), for which the IC50 in assay [1] and in assay [2] was 0.07 µM in each case. For the same molecule, in the assay with Hepatitis C virus [4], the EC50 is 2.9 µM.

With `CCCC1(CC(=O)O)OCCc2c1[nH]c1c(C)c(OC(C)C)cc(C#N)c21` (racemic), the 50% inhibitory concentration (IC50) came to 0.48 µM in assay [1] and 0.22 µM in assay [2]. The EC50 in the assay on Hepatitis C virus [4] is 19.7 µM.

`CCCC1(CC(=O)O)OCCc2c1[nH]c1c(C)c(OCCOC)cc(C#N)c21` (racemic): the IC50 came out at 0.04 µM in assay [1] and 0.09 µM in assay [2]. Besides, the EC50 in the assay on Hepatitis C virus [4] was 4.9 µM.

As for `CCCC1(CC(=O)O)OCCc2c1[nH]c1c(C)c(OCCN3CCCC3)cc(C#N)c21` (racemic), the half-maximal inhibitory concentration (IC50) was 1.1 µM in assay [1] and 0.95 µM in assay [2]. Moreover, in the assay on Hepatitis C virus [4], the 50% effective concentration (EC50) stood at 26 µM.

On to `CCCC1(CC(=O)O)OCCc2c1[nH]c1c(C)c(OCc3ccccn3)cc(C#N)c21` (racemic), for which the IC50 in assay [1] and in assay [2] was 0.02 µM each time. Also, the EC50 with Hepatitis C virus [4] is 0.39 µM.

As to `CCCC1(CC(=O)O)OCCc2c1[nH]c1c(C)c(OCCc3ccncc3)cc(C#N)c21` (racemic), the IC50 in assay [1] came to 0.31 µM; in assay [2], 0.23 µM. Further, the EC50 in the assay with Hepatitis C virus [4] came out at 8.3 µM.

As to `CCCC1(CC(=O)O)OCCc2c1[nH]c1c(C)c(OCc3cnccn3)cc(C#N)c21` (racemic), the results for the IC50 in assay [1] and in assay [2] were 0.019 µM and 0.02 µM, respectively. The EC50 with Hepatitis C virus [4] turned out to be 1.6 µM.

By IC50 is commonly meant the midpoint of a concentration-inhibition curve. Low values mean inhibition by little substance, high ones a need for much substance. What is called EC50 is the midpoint of the concentration-response curve.
